Laboratory results published in PubChem BioAssay (NCI).
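96-well plates; 48 h exposure; 5 concentrations. Endpoints by linear interpolation between flanking doses. Not reached: highest tested concentration assigned. GI50 is the concentration that inhibits growth by half. The concentration for full growth arrest is given as TGI.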

Columns and labels:
Assay in all cases: inhibition of tumour cell growth, NCI panel, 48 h
DMS 114 small cell lung = tested on: DMS 114 small cell lung
DMS 273 small cell lung = tested on: DMS 273 small cell lung
HOP-18 NSCLC = tested on: HOP-18 NSCLC
KM20L2 colon = tested on: KM20L2 colon
M19-MEL melanoma = tested on: M19-MEL melanoma
SNB-78 CNS = tested on: SNB-78 CNS
XF 498 CNS = tested on: XF 498 CNS
MDA-N = tested on: MDA-N
RXF-631 renal = tested on: RXF-631 renal

## Cc1ccc(S(=O)OC2C3CC4CC(C3)CC2C4)cc1 (stereo not given)
DMS 114 small cell lung
  TGI: > 100 µM
DMS 273 small cell lung
  TGI: > 100 µM
HOP-18 NSCLC
  TGI: > 100 µM
KM20L2 colon
  TGI: > 100 µM
M19-MEL melanoma
  TGI: > 100 µM
SNB-78 CNS
  TGI: > 100 µM
XF 498 CNS
  TGI: > 100 µM

## COc1ccc(-c2cc(=O)c3c(OC)c(OC)c(OC)c(OC)c3o2)cc1
MDA-N
  TGI: > 100 µM

## CN(C)c1ccc(/C=C2\C=Cc3ccccc32)cc1
DMS 114 small cell lung
  TGI: 89.6 µM
DMS 273 small cell lung
  TGI: > 100 µM
HOP-18 NSCLC
  TGI: > 100 µM
KM20L2 colon
  TGI: > 100 µM
M19-MEL melanoma
  TGI: > 100 µM

## COc1cc2nc(NCCCCCNC(=O)c3ccco3)nc(N)c2cc1OC
DMS 114 small cell lung
  TGI: 40.6 µM
DMS 273 small cell lung
  TGI: > 100 µM
HOP-18 NSCLC
  TGI: > 100 µM
KM20L2 colon
  TGI: > 100 µM
M19-MEL melanoma
  TGI: 61.4 µM
RXF-631 renal
  TGI: 74.1 µM
SNB-78 CNS
  TGI: 89.5 µM

## C/C=C(\C)c1cc(O)c(C)c2c1Oc1cc(O)c(Cl)c(C)c1C(=O)O2
DMS 114 small cell lung
  TGI: 74.9 µM
DMS 273 small cell lung
  TGI: 67.9 µM
KM20L2 colon
  TGI: 35.2 µM
M19-MEL melanoma
  TGI: 81.8 µM
SNB-78 CNS
  TGI: 82.6 µM

## CC1(C)CCC[C@]2(C)[C@@H](C=O)C(C=O)=CC[C@@H]12
MDA-N
  TGI: 26.4 µM

## COC(=O)C(C)(C)N=CN(C)C
DMS 114 small cell lung
  TGI: > 100 µM
DMS 273 small cell lung
  TGI: > 100 µM
HOP-18 NSCLC
  TGI: > 100 µM
KM20L2 colon
  TGI: > 100 µM
M19-MEL melanoma
  TGI: > 100 µM
RXF-631 renal
  TGI: > 100 µM
SNB-78 CNS
  TGI: > 100 µM
XF 498 CNS
  TGI: > 100 µM

## Cc1cc(N(CCC#N)CCC#N)ccc1/C=C1/N=C(c2ccccc2)N(N)C1=O
DMS 114 small cell lung
  TGI: > 100 µM
DMS 273 small cell lung
  TGI: > 100 µM
KM20L2 colon
  TGI: > 100 µM
M19-MEL melanoma
  TGI: > 100 µM
XF 498 CNS
  TGI: > 100 µM

## CCOC1=C2N=C(Cc3ccccc3F)N=C2C(=O)c2ccccc21
DMS 114 small cell lung
  TGI: > 100 µM
DMS 273 small cell lung
  TGI: > 100 µM
HOP-18 NSCLC
  TGI: > 100 µM
KM20L2 colon
  TGI: > 100 µM
M19-MEL melanoma
  TGI: > 100 µM
XF 498 CNS
  TGI: > 100 µM

## CNS(=O)(=O)NNS(=O)(=O)c1ccc(Cl)cc1
DMS 114 small cell lung
  TGI: > 100 µM
KM20L2 colon
  TGI: > 100 µM
M19-MEL melanoma
  TGI: > 100 µM
RXF-631 renal
  TGI: > 100 µM

## CN(C)c1ccc(N=Nc2ccncc2)cc1
MDA-N
  TGI: > 100 µM

## C=C1CCC2[C@@H](CCC3[C@]2(C)CCC[C@]3(C)C(=O)OC)[C@@H]1CC=O (stereo not given in full)
DMS 114 small cell lung
  TGI: 53.2 µM
DMS 273 small cell lung
  TGI: 50.1 µM
HOP-18 NSCLC
  TGI: 86 µM
KM20L2 colon
  TGI: 62.7 µM
M19-MEL melanoma
  TGI: 49 µM
RXF-631 renal
  GI50: 44.9 µM
  TGI: > 100 µM
SNB-78 CNS
  TGI: > 100 µM
XF 498 CNS
  TGI: 61.6 µM

## CCCCCCCCCCCCCP(=O)(O)NCC(N)=O
DMS 114 small cell lung
  TGI: > 100 µM
HOP-18 NSCLC
  TGI: 86.1 µM
KM20L2 colon
  TGI: > 100 µM
M19-MEL melanoma
  TGI: > 100 µM
RXF-631 renal
  TGI: > 100 µM
XF 498 CNS
  TGI: > 100 µM

## CN1COc2c(n(C)c(=O)[nH]c2=O)C1
DMS 114 small cell lung
  TGI: > 100 µM
DMS 273 small cell lung
  TGI: > 100 µM
HOP-18 NSCLC
  TGI: > 100 µM
KM20L2 colon
  TGI: > 100 µM
M19-MEL melanoma
  TGI: > 100 µM
SNB-78 CNS
  TGI: > 100 µM
XF 498 CNS
  TGI: > 100 µM

## CC1(C)OCC(C(O)C2OC(C)(C)OC2/C=N\O)O1 (stereo not given)
DMS 114 small cell lung
  TGI: > 100 µM
DMS 273 small cell lung
  TGI: > 100 µM
HOP-18 NSCLC
  TGI: > 100 µM
KM20L2 colon
  TGI: > 100 µM
M19-MEL melanoma
  TGI: > 100 µM
SNB-78 CNS
  TGI: > 100 µM
XF 498 CNS
  TGI: > 100 µM

## CCCCCCN(N)C(=O)CC#N
DMS 114 small cell lung
  TGI: > 100 µM
DMS 273 small cell lung
  TGI: > 100 µM
HOP-18 NSCLC
  TGI: > 100 µM
KM20L2 colon
  TGI: > 100 µM
M19-MEL melanoma
  TGI: > 100 µM
RXF-631 renal
  TGI: > 100 µM
SNB-78 CNS
  TGI: > 100 µM

## O=C(O)/C(Cl)=C(\Cl)C(=O)Nc1ccc(Cl)c(Cl)c1Cl
DMS 114 small cell lung
  TGI: 35.1 µM
DMS 273 small cell lung
  TGI: 36.2 µM
HOP-18 NSCLC
  TGI: 31 µM
KM20L2 colon
  TGI: 44.7 µM
M19-MEL melanoma
  TGI: 30.8 µM
SNB-78 CNS
  TGI: 84.7 µM

## COc1ccc(C(Cl)=C(c2ccc(OCCN(C)C)cc2)c2ccc(OCCN(C)C)cc2)cc1
DMS 114 small cell lung
  TGI: 3.06 µM
DMS 273 small cell lung
  TGI: 4.17 µM
KM20L2 colon
  TGI: 2.74 µM
RXF-631 renal
  TGI: 0.966 µM
SNB-78 CNS
  TGI: 3.94 µM
XF 498 CNS
  TGI: 2.81 µM

## Cn1cncc1CC1COC(=O)C1C(O)c1ccccc1 (stereo not given)
MDA-N
  TGI: > 100 µM

## CC1(C)C2CCC13CS(=O)(=O)N1O[C@]13C(=O)O2 (stereo not given in full)
DMS 114 small cell lung
  TGI: > 100 µM
HOP-18 NSCLC
  TGI: > 100 µM
KM20L2 colon
  TGI: > 100 µM
M19-MEL melanoma
  TGI: > 100 µM
RXF-631 renal
  TGI: > 100 µM
SNB-78 CNS
  TGI: > 100 µM
